Assay results: the NIST ThermoML archive (doi:10.1016/j.fluid.2019.06.020)
± gives the expanded uncertainty stated by the source.

Settings: Liquid, Closed cell (Static) method

Row | Structure (SMILES) | vapor or sublimation pressure (273.17 K) [kPa] | vapor or sublimation pressure (278.17 K) [kPa] | vapor or sublimation pressure (283.16 K) [kPa] | vapor or sublimation pressure (288.16 K) [kPa] | vapor or sublimation pressure (293.15 K) [kPa] | vapor or sublimation pressure (298.15 K) [kPa] | vapor or sublimation pressure (303.15 K) [kPa] | vapor or sublimation pressure (308.15 K) [kPa] | vapor or sublimation pressure (313.15 K) [kPa] | vapor or sublimation pressure (318.15 K) [kPa] | vapor or sublimation pressure (323.14 K) [kPa] | vapor or sublimation pressure (328.14 K) [kPa] | vapor or sublimation pressure (333.14 K) [kPa] | vapor or sublimation pressure (338.14 K) [kPa] | vapor or sublimation pressure (343.14 K) [kPa] | vapor or sublimation pressure (348.13 K) [kPa] | vapor or sublimation pressure (353.13 K) [kPa] | vapor or sublimation pressure (323.15 K) [kPa] | vapor or sublimation pressure (328.15 K) [kPa] | vapor or sublimation pressure (333.15 K) [kPa]
1 | C=CC(F)(F)F [1,1,1-trifluoro-2-propene] | 268.8 ± 5 | 318.4 ± 5 | 373.6 ± 5.1 | 437.6 ± 5.1 | 510 ± 5.1 | 590.1 ± 5.1 | 678.2 ± 5.1 | 776.7 ± 5.2 | 883.6 ± 5.2 | 1001.8 ± 5.3 | 1130.4 ± 5.4 | 1274.9 ± 5.5 | 1431.6 ± 5.6 | 1600.5 ± 5.7 | 1785.7 ± 5.8 | 1986.4 ± 6 | 2203.1 ± 6.2 | – | – | –
2 | FCC(F)(F)F [1,1,1,2-tetrafluoroethane] | 294.3 ± 5 | 351.2 ± 5.1 | 415.4 ± 5.1 | 488.2 ± 5.1 | 570.6 ± 5.1 | 664.8 ± 5.2 | 769.2 ± 5.2 | 886 ± 5.3 | 1017.7 ± 5.3 | 1158.1 ± 5.4 | – | – | – | 1889.1 ± 6 | 2118.1 ± 6.2 | 2361.2 ± 6.4 | 2634.6 ± 6.7 | 1317.4 ± 5.5 | 1489.6 ± 5.6 | 1679.7 ± 5.8
